Patent US20100068747A1, “Generic Assay for Monitoring Endocytosis” (Evotec Technologies GmbH, priority 2005, published 2010)
Entries after “also recorded” stand apart in the source; their conditions may differ.

Assays:
[1] = test system: U2OS/ETAR-GFP cells; assay: Lectin labeling of fixed cells, U2OS/ETAR-GFP; type: cell-based, human; conditions: TRITC-lectin 10 nM and 20 nM
Experimental: (§1) Lectin labeling of fixed cells was conducted as follows: To detach confluent cells in order to prepare experiments for internalization studies, cells were always treated with EDTA solution instead of trypsin solution. For all seeding, washing, and labeling steps in 96-well plates a working volume of 100 μl per well was assessed. Cells were seeded out into a 96-well plate at different concentrations. U2OS/ETAR-GFP suspensions were adjusted to yield 2*10^4 cells/well, both of the CHO cell lines must be at 2.5*10^4 cells/well. Cells became confluent after 24 hours of incubation. In the following, they were washed with phosphate buffered saline (PBS) and fixed with 3% PFA for 20 minutes at RT. Then, cells were washed again with PBS and incubated in 10 nM and 20 nM solutions of each TRITC-lectin candidate in PBS, respectively. Again, cells were washed with PBS to remove excess lectin, and wells were refilled with PBS for analysis. For specificity controls, lectin solutions were incubated for 30 minutes prior to the application with an excess of the monosaccharide that represents the respective glyco-epitope.
(§2) The following microscopy and image analysis techniques were employed. When utilizing the epifluorescence microscope magnifications were adjusted according to the purpose of observation, e.g. single cell vs. cell collective. Concerning the filters U-MNU was used for Hoechst, U-MSWB for GFP, and U-N41007 for TRITC detection. Hoechst images were taken at 50 ms exposure time, GFP images at 100 to 200 ms and TRITC images needed 500 to 1000 ms. Overlay images were assembled with AnalySIS and tuned in color intensity to obtain the desired color contrast. Images taken to compare two experimental conditions, e.g. control vs. stimulus, featured identical exposure parameters. If possible, well areas were chosen that reflect similar states of confluence. Utilizing the Opera confocal fluorescence imager, the instrument was calibrated running standard methods for skew cropping (spatial camera alignments) and camera intensity normalization.

[2] = test system: CHO/PAR-2 cells; assay: Lectin labeling of fixed cells, CHO/PAR-2; type: cell-based; conditions: TRITC-lectin 10 nM and 20 nM
Experimental: as §1, §2

[3] = test system: CHO/ETAR cells; assay: Lectin labeling of live cells, CHO/ETAR; type: cell-based; conditions: TRITC-lectin, 10 nM at maximum
Experimental: Lectin labeling of live cells was conducted as follows: Cells were seeded as described above. After 24 hours cells were washed once with PBS and incubated in the incubator for another 2 hours in the respective standard medium without serum supplement to deprive them of serum factor mediated stimuli. This step was termed starvation period. Subsequently, cells were washed gently with PBS and incubated with 37° C. tempered assay medium comprised of Hank's Balanced Salt Solution (HBSS) pH 7.4, containing 20 mM HEPES and 30 mM D-glucose. The plate was left at RT for 30 minutes to slowly level its temperature and, thus, avoid capturing of temperature drop induced membrane dynamics. This period was termed leveling period. Then, assay medium was withdrawn and wells refilled with TRITC-lectin solutions at RT to start cell labeling. Several lectin concentrations in the low nano-molar range were tested. Molar concentrations were calculated from the data provided by Vector Labs. The plate was placed on a rotating shaker at low revolutions for 10 minutes while incubating. The start of the lectin incubation is referred to as assay starting point with t=0 min. After the 10 min incubation period the cells were gently washed with PBS and wells refilled with assay buffer at RT. Instantly thereafter, fluorescence signals were monitored predominately using the epifluorescence microscope.
as §2

[4] = test system: CHO/ETAR cell membrane protein; assay: Lectin blotting of ETAR membrane sample; type: binding
Experimental: Membrane preparation was conducted as follows: Cells were cultured in five T175 flasks until confluency. Confluent cells were detached by applying 3 ml of EDTA solution onto the PBS washed cells. Following a 20-minute incubation at 37° C. and 5% CO2, cells were resuspended in 12 ml of starvation medium (standard medium without FCS), counted, and centrifuged in a Heraeus Megafuge 1.0R at 133 rcf for 4 minutes. All subsequent steps were carried out on ice and with ice cold solutions. After unification of all pellet fractions, hypotonic lysis buffer was added to the cells at a ratio of 1 ml per 5*10^7 cells. Additionally, protease inhibitor cocktail was added to 50 μl per 5*10^7 cells. Cells were homogenized with 30 strokes in a 5 ml potter on ice, centrifuged at 4° C. and 917 rcf for 10 minutes, and the supernatant was stored in an ultracentrifuge tube on ice. The pellet fraction was homogenized and centrifuged once again as described above. The supernatants of both procedures were unified and centrifuged at 4° C. and 100,000 rcf for 45 minutes in a Sorvall ultra-centrifuge. The supernatant of this centrifugation procedure was withdrawn and the pellet dissolved in 0.5 ml or 1.0 ml modified SDS PAGE loading buffer containing Tris-HCl, SDS, glycerol, but no β-mercapto-ethanol or dyes and stored in small aliquots of 50 μl at −20° C.
SDS-Page of membrane samples was conducted as follows: Discontinuous 12% polyacrylamide gels were prepared according to a standard protocol. Broad range marker and 25 μg membrane protein were mixed 1:1 with loading buffer and loaded five times onto a mini gel in alternating order. The gels were run at U=100 V for the first 20 minutes. Subsequently, voltage was increased to U=150 V. The run was aborted as soon as the pyronin G band reached the end of the gel. For coomassie staining, gels were put in coomassie staining solution on a shaker at low revolutions for 45 min. The staining solution was removed and the gel incubated with destaining solution for one to two hours, exchanging the solution several times until the desired contrast was obtained. […]

succinylated Triticum vulgaris (wheat germ) agglutin [sWGA]
Staining of U2OS/ETAR-GFP [1]: extensive fluorescence was observed at the cell surface | Staining of CHO/PAR-2 [2]: signals clearly marking individual cells; also recorded: cell surface | Live cell staining of CHO/ETAR [3]: single spot formation continued fairly slowly | bands that stood out below 35 kDa ([4]; ETAR sample): five | band at the same height as in the western (47 kDa, anti-ETAR) ([4]; biotinylated lectin 5 μg/ml): very faint band
